Laboratory results from patent US8785439B2, “2,5,7-substituted oxazolopyrimidine derivatives” (Sanofi, priority 2010, dated 2014).

Each molecule was assayed against T1, human Edg-1 receptor (Homo sapiens, UniProt P21453) (assay: GTP-γ-S assay using human Edg-1 receptors (SPA, CHO Flp-In cell membrane preparation)). Conditions: test compound at 10 μM; high control 10 μM S1P regarded as 100% activation; background-corrected; triplicate.
T1 construct: FLAG (N); expressed in transfected cells; membrane preparation
Assay type: biochemical
Description: Determination of the Pharmacological Activity A) GTP-γ-S Assay Using Human Edg-1 Receptors
In order to determine the Edg-1 receptor activation by the compounds of the invention, a GTP-γ-S (guanosine 5′-[γ-thio]triphosphate) assay for G-protein coupled receptor binding based on the scintillation proximity assay principle was used, employing a cell membrane preparation from a CHO Flp-In cell line which constitutively overexpresses the human Edg-1 receptor.
The Flp-In™ expression system (Invitrogen, cat. no. K6010-01) allows the generation of stable mammalian cell lines into which the gene of interest has been integrated through homologous recombination at a specific genomic location called Flp Recombination Target (FRT) site by means of a Flp recombinase encoded by the pOG44 expression plasmid. The integration of the pcDNA5/FRT expression construct into the Flp-In host cell line genome results in the transcription of the gene of interest. The stably transfected cells become hygromycin-resistant.
One day prior to transfection, 200 000 Flp-In-CHO cells were seeded in Ham F-12 medium (Invitrogen, cat. no. 31765) supplemented with 10% fetal calf serum (FCS; Perbio Science, cat. no. SH30068.03) in a 6-well plate and incubated at 37° C./5% CO2 overnight. Using the FuGENE® 6 transfection reagent (Roche, cat. no. 11988387001), cells were cotransfected with the Flp recombinase expression plasmid pOG44 and a modified plasmid additionally containing the edg-1 gene (accession no. NM_001400) termed as pcDNA5-FRT-TO_nFLAG_DEST-EDG-1 with a 9:1 ratio. To obtain the modified pcDNA5-FRT-TO_nFLAG_DEST plasmid, the Invitrogen plasmid pcDNA5/FRT/TO (Invitrogen, cat. no. V6520-20) was adapted to the Gateway® (Invitrogen) cloning system by inserting a Gateway cassette containing attR recombination sites flanking a ccdB gene and a chloramphenicol-resistance gene (Gateway conversion system, Invitrogen, cat. no. 11828-029). In addition a FLAG tag epitope was added before the 5′ att recombination site to allow recombinant expression of N-terminally FLAG-tagged proteins.
For the transfection of one well, 1.08 μg of pOG44 and 0.12 μg of pcDNA5-FRT-TO_nFLAG_DEST-EDG-1 were mixed with 100 μl of serum-free Ham F-12 medium containing 6 μl of FuGENE® 6 transfection reagent. After 20 min of incubation, the transfection reagent/DNA complex was distributed dropwise on the cells. The cells were incubated for 24 h at 37° C. Then the cells from 3 wells each were transferred to a T75 flask (Greiner Cellstar®, cat. no. 658175) containing Ham F-12 medium supplemented with 10% of FCS but without antibiotic and were incubated another 24 h. 48 h after transfection, the medium was replaced by selection medium (Ham F-12 supplemented with 10% of FCS and 300 μg/ml of hygromycin B (Invitrogen, cat. no. 10687-010)). The medium was exchanged every 2 to 3 days until a resistant population of cells had grown. […] After 2 weeks of selection, the cells were transferred into T175 flasks (Greiner Cellstar®, cat. no. 660175) and cultivated for batch production. Cells were harvested from the culture flasks by short treatment (2 to 5 min) with Accutase (PAA, cat. no. L11-007), resuspended in selection medium (see above) and centrifuged at 200×g for 5 min. Cells were resuspended in a mixture of 90% of FCS and 10% of dimethylsulfoxide and stored frozen in liquid nitrogen.
A membrane preparation was obtained by standard methods from the afore-described CHO Flp-In cell line constitutively overexpressing the human Edg-1 receptor. Briefly, the cryopreserved cells were taken in culture and grown until confluency in T175 cell culture flasks (Becton Dickinson, cat. no. 35 5001). […]

T1 sequence (P21453 whole entry): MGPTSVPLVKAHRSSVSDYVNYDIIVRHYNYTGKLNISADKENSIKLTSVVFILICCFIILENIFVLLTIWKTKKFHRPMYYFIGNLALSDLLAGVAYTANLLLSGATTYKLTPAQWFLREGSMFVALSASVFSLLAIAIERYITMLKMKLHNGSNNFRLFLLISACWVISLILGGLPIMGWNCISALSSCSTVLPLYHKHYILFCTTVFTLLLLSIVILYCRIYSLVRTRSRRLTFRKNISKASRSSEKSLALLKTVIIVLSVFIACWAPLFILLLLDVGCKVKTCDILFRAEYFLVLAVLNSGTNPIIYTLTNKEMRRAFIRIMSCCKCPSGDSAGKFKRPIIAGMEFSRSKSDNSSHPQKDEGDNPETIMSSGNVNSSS

Compound	% Activation (Edg-1 receptor activation in percent of the activation by 10 μM S1P) [%]
CC1(C)OCC(COc2nc(OCC3CC3)c3nc(-c4cccc(F)c4)oc3n2)O1 (centres unmarked) [Example 35]	72

Same assay, conditions: test compound at 10 μM; high control 10 μM S1P regarded as 100% activation; background-corrected; triplicate; read-out: % Activation (Edg-1 receptor activation in percent of the activation by 10 μM S1P)

Compound	activation at 10 µM [%]
CCOc1nc(Oc2ccccc2F)nc2oc(-c3cc(F)ccc3Cl)nc12 [Example 30, 2-(2-chloro-5-fluoro-phenyl)-7-ethoxy-5-(2-fluoro-phenoxy)-oxazolo[5,4-d]pyrimidine]	134
CCCOc1nc(Oc2ccccc2F)nc2oc(-c3cccc(F)c3)nc12 [Example 31, 5-(2-fluoro-phenoxy)-2-(3-fluoro-phenyl)-7-propoxy-oxazolo[5,4-d]pyrimidine]	80
CCCOc1nc(Oc2ccccc2)nc2oc(-c3cc(C)ccc3F)nc12 [Example 33, 2-(2-fluoro-5-methyl-phenyl)-5-phenoxy-7-propoxy-oxazolo[5,4-d]pyrimidine]	124
CCCOc1nc(Oc2ccccc2F)nc2oc(-c3cccc(OC)c3)nc12 [Example 40, 5-(2-fluoro-phenoxy)-2-(3-methoxy-phenyl)-7-propoxy-oxazolo[5,4-d]pyrimidine]	120
CCCOc1nc(Oc2cccnc2)nc2oc(-c3cccc(OC)c3)nc12 [Example 41, 2-(3-methoxy-phenyl)-7-propoxy-5-(pyridin-3-yloxy)-oxazolo[5,4-d]pyrimidine]	102
CCCOc1nc(Oc2ccccc2F)nc2oc(-c3cccc(O)c3)nc12 [Example 42, 3-[5-(2-fluoro-phenoxy)-7-propoxy-oxazolo[5,4-d]pyrimidin-2-yl]-phenol]	130
CCCOc1nc(Oc2cccnc2)nc2oc(-c3cccc(O)c3)nc12 [Example 43, 3-[7-propoxy-5-(pyridin-3-yloxy)-oxazolo[5,4-d]pyrimidin-2-yl]-phenol]	98
CCCOc1nc(Oc2cccnc2)nc2oc(-c3ccc(Cl)c(Cl)c3)nc12 [Example 44, 2-(3,4-dichloro-phenyl)-7-propoxy-5-(pyridin-3-yloxy)-oxazolo[5,4-d]pyrimidine]	94
CCCOc1nc(OCC2COC(C)(C)O2)nc2oc(-c3ccc(Cl)c(Cl)c3)nc12 (centres unmarked) [Example 45, 2-(3,4-dichloro-phenyl)-5-(2,2-dimethyl-[1,3]dioxolan-4-ylmethoxy)-7-propoxy-oxazolo[5,4-d]pyrimidine]	74
CCOc1nc(Oc2ccccc2F)nc2oc(-c3cc(C)c(OC)c(C)c3)nc12 [Example 46, 7-ethoxy-5-(2-fluoro-phenoxy)-2-(4-methoxy-3,5-dimethyl-phenyl)-oxazolo[5,4-d]pyrimidine]	102
CCOc1nc(Oc2ccccc2F)nc2oc(-c3cc(C)c(O)c(C)c3)nc12 [Example 47, 4-[7-ethoxy-5-(2-fluoro-phenoxy)-oxazolo[5,4-d]pyrimidin-2-yl]-2,6-dimethyl-phenol]	119
Cc1cc(-c2nc3c(OC4COC4)nc(Oc4ccccc4F)nc3o2)cc(C)c1OC1COC1 [Example 49, 2-[3,5-dimethyl-4-(oxetan-3-yloxy)-phenyl]-5-(2-fluoro-phenoxy)-7-(oxetan-3-yloxy)-oxazolo[5,4-d]pyrimidine]	123
CCCOc1nc(Oc2cc(F)ccc2C)nc2oc(-c3cccc(C)c3)nc12 [Example 50, 5-(5-fluoro-2-methyl-phenoxy)-7-propoxy-2-(3-methyl-phenyl)-oxazolo[5,4-d]pyrimidine]	107
CCCOc1nc(Oc2ccc(OC(F)(F)F)c(Cl)c2)nc2oc(-c3cccc(C)c3)nc12 [Example 52, 5-(3-chloro-4-trifluoromethoxy-phenoxy)-7-propoxy-2-(3-methyl-phenyl)-oxazolo[5,4-d]pyrimidine]	51
CCCOc1nc(Sc2nc(C)cs2)nc2oc(-c3cccc(C)c3)nc12 [Example 55, 5-(4-methyl-thiazol-2-ylsulfanyl)-7-propoxy-2-(3-methyl-phenyl)-oxazolo[5,4-d]pyrimidine]	81
CCCOc1nc(NC2CCOCC2)nc2oc(-c3cc(F)ccc3Cl)nc12 [Example 57, [2-(2-chloro-5-fluoro-phenyl)-7-propoxy-oxazolo[5,4-d]pyrimidin-5-yl]-(tetrahydro-pyran-4-yl)-amine]	80

Next, values leading:

activation at 10 µM [%]	Compound
109	Cc1cccc(-c2nc3c(OCC4CC4)nc(Oc4ccccc4F)nc3o2)c1 [Example 29, 7-cyclopropylmethoxy-5-(2-fluoro-phenoxy)-2-(3-methyl-phenyl)-oxazolo[5,4-d]pyrimidine]
61	Fc1cccc(-c2nc3c(OCC4CC4)nc(Oc4ccccc4F)nc3o2)c1 [Example 32, 7-cyclopropylmethoxy-5-(2-fluoro-phenoxy)-2-(3-fluoro-phenyl)-oxazolo[5,4-d]pyrimidine]
99	CC1(C)OCC(COc2nc(OCC3CC3)c3nc(-c4cc(F)ccc4Cl)oc3n2)O1 (centres unmarked) [Example 34, 2-(2-chloro-5-fluoro-phenyl)-7-cyclopropylmethoxy-5-(2,2-dimethyl-[1,3]dioxolan-4-ylmethoxy)-oxazolo[5,4-d]pyrimidine]
78	Cc1cccc(-c2nc3c(OCC4CC4)nc(OCC4COC(C)(C)O4)nc3o2)c1 (centres unmarked) [Example 36, 7-cyclopropylmethoxy-5-(2,2-dimethyl-[1,3]dioxolan-4-ylmethoxy)-2-(3-methyl-phenyl)-oxazolo[5,4-d]pyrimidine]
86	CCOc1nc(OCC2COC(C)(C)O2)nc2oc(-c3cccc(C)c3)nc12 (centres unmarked) [Example 37, 5-(2,2-dimethyl-[1,3]dioxolan-4-ylmethoxy)-7-ethoxy-2-(3-methyl-phenyl)-oxazolo[5,4-d]pyrimidine]
70	CCCOc1nc(OC2COC2)nc2oc(-c3cccc(C)c3)nc12 [Example 38, 5-(oxetan-3-yloxy)-7-propoxy-2-(3-methyl-phenyl)-oxazolo[5,4-d]pyrimidine]
47	Cc1cccc(-c2nc3c(OCC4CC4)nc(OC4COC4)nc3o2)c1 [Example 39, 7-cyclopropylmethoxy-5-(oxetan-3-yloxy)-2-(3-methyl-phenyl)-oxazolo[5,4-d]pyrimidine]
105	CCCOc1nc(O[C@H]2CCCC[C@@H]2F)nc2oc(-c3cccc(F)c3)nc12 [Example 48, 5-((1S,2S)-2-fluoro-cyclohexyloxy)-2-(3-fluoro-phenyl)-7-propoxy-oxazolo[5,4-d]pyrimidine]
110	CCCOc1nc(Oc2ccccc2)nc2oc(-c3cccc(C)c3)nc12 [Example 51, 5-phenoxy-7-propoxy-2-(3-methyl-phenyl)-oxazolo[5,4-d]pyrimidine]
73	CCCOc1nc(Oc2ccc(C)cc2C)nc2oc(-c3cccc(C)c3)nc12 [Example 53, 5-(2,4-dimethyl-phenoxy)-7-propoxy-2-(3-methyl-phenyl)-oxazolo[5,4-d]pyrimidine]
105	CCCOc1nc(Oc2ccc(C)c(F)c2)nc2oc(-c3cccc(C)c3)nc12 [Example 54, 5-(3-fluoro-4-methyl-phenoxy)-7-propoxy-2-(3-methyl-phenyl)-oxazolo[5,4-d]pyrimidine]
97	CCCOc1nc(Oc2ccc(=O)n(C)n2)nc2oc(-c3cccc(C)c3)nc12 [Example 56, 2-methyl-6-(7-propoxy-2-(3-methyl-phenyl)-oxazolo[5,4-d]pyrimidin-5-yloxy)-2H-pyridazin-3-one]
